Source: patent US8946215B2, “Hydroxy-substituted imidazo[1,2-a]pyridinecarboxamides and their use” (Bayer Pharma Aktiengesellschaft, priority 2012, dated 2015)

What was measured:
[1] = biological target: T1, recombinant guanylate cyclase reporter cell line (Rattus norvegicus, UniProt P19686+P20595); experiment: Action on recombinant guanylate cyclase reporter cell line; format: cell-based; settings: in some cases mean values obtained from individual determinations
T1 construct: expressed in transfected cells
T1 sequence (P20595 1-619): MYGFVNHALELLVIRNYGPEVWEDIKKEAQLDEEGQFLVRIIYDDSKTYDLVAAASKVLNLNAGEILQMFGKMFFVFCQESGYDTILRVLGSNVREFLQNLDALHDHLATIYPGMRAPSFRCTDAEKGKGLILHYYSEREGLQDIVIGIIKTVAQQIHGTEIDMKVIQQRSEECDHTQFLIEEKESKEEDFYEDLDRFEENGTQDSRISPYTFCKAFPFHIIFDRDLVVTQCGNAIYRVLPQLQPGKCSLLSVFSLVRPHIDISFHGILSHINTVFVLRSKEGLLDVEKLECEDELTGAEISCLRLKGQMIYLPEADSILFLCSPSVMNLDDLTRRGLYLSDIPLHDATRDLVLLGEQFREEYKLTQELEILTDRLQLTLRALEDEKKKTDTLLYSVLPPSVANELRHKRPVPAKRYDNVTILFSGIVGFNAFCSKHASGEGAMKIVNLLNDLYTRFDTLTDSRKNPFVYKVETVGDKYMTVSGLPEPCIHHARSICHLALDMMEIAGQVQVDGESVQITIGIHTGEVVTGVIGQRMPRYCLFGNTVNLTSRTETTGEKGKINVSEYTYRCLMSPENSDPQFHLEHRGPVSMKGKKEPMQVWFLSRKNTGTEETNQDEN
T1 sequence (P19686 1-690): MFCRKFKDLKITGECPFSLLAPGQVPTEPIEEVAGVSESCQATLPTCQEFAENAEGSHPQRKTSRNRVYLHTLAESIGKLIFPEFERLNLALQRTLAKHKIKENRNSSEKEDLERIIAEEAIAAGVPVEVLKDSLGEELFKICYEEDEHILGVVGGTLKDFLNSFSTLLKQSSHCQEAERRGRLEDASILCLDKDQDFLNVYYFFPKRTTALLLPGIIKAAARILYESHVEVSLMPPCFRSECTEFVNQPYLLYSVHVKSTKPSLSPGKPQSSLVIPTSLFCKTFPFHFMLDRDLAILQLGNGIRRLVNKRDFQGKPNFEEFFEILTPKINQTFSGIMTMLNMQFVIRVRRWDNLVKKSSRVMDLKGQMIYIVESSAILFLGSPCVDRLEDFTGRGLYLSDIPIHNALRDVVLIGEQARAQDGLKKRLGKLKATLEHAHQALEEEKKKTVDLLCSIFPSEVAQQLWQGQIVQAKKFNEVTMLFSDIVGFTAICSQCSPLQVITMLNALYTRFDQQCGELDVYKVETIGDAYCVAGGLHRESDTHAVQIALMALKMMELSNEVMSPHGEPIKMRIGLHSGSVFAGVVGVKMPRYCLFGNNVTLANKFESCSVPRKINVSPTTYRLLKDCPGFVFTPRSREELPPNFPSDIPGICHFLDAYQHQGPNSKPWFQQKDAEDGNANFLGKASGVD
Summary of the method: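 Cell-based reporter assay with recombinant guanylate cyclase expressed in a reporter cell line, per a published method. Activity reported as minimal effective concentration (MEC), in some cases as the mean of individual determinations.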

[2] = Determination of pharmacokinetic parameters following intravenous and oral administration (rats); format: in vivo, male Wistar rats; settings: following intravenous and peroral administration; for MRT / half-life: male, Wistar, rat, plasma; for MRT: read-out: MRT (Mean Residence Time); for half-life: read-out: t½ (terminal half life) (converted)
Experimental: B-6. Determination of Pharmacokinetic Parameters Following Intravenous and Oral Administration
The pharmacokinetic parameters of the compounds according to the invention are determined in male CD-1 mice, male Wistar rats and female beagles. Intravenous administration in the case of mice and rats is carried out by means of a species-specific plasma/DMSO formulation, and in the case of dogs by means of a water/PEG400/ethanol formulation. In all species, oral administration of the dissolved substance is performed via gavage, based on a water/PEG400/ethanol formulation.
The taking of blood from rats is simplified by inserting a silicone catheter into the right Vena jugularis externa prior to substance administration. The operation is carried out at least one day prior to the experiment with […] and administration of an analgesic (atropin/Rimadyl (3/1) 0.1 ml s.c.). The blood is taken (generally more than 10 time points) within a time window including terminal time points of at least 24 to a maximum of 72 hours after substance administration. When the blood is taken, it is passed into heparinised tubes. Then the blood plasma is obtained by centrifugation and is optionally stored at −20° C. until further processing.
An internal standard (which may also be a chemically unrelated substance) is added to the samples of the compounds according to the invention, calibration samples and qualifiers, and there follows protein precipitation by means of excess acetonitrile. Addition of a buffer solution matched to the LC conditions, and subsequent vortexing, is followed by centrifugation at 1000 g. The supernatant is analysed by LC-MS/MS using C18 reversed-phase columns and variable mobile phase mixtures.
The substances are quantified via the peak heights or areas from extracted ion chromatograms of specific selected ion monitoring experiments.
The plasma concentration/time plots determined are used to calculate the pharmacokinetic parameters such as AUC, Cmax, t1/2 (terminal half life), F (Bioavailability), MRT (Mean Residence Time) and CL (Clearance), using a validated pharmacokinetic calculation programme.
Since the substance quantification is carried out in plasma, it is necessary to determine the blood/plasma distribution of the substance in order to be able to adjust the pharmacokinetic parameters correspondingly. For this purpose, a defined amount of substance is incubated in heparinised whole blood of the species in question in a rocking roller mixer for 20 min. After centrifugation at 1000 g, the plasma concentration is measured (by means of LC-MS/MS; see above) and determined by calculating the ratio of the Cblood/Cplasma value.

Row | Structure (SMILES) | MEC (minimal effective concentration) [1] [µM] | other results
1 | Cc1nc2c(OCc3ncccc3F)cc(Cl)cn2c1C(=O)NC(CCCC(F)(F)F)C(C)(C)O (single isomer, unassigned; ent-6) [Example 188, ent-6-chloro-8-[(3-fluoropyridin-2-yl)methoxy]-2-methyl-N-(7,7,7-trifluoro-2-hydroxy-2-methylheptan-3-yl)imidazo[1,2-a]pyridine-3-carboxamide (enantiomer A)] | 0.3 | AUCnorm [2]: 2.3 kg·h/L; CLblood [2]: 8.83 mL/min/kg; MRT [2]: 2.5 h; half-life [2]: 1.7 h
2 | Cc1nc2c(OCc3ncccc3F)cc(Cl)cn2c1C(=O)NC(CCC(F)(F)C(F)(F)F)C(C)(C)O (single isomer, unassigned; ent-6) [Example 194, ent-6-chloro-8-[(3-fluoropyridin-2-yl)methoxy]-2-methyl-N-(6,6,7,7,7-pentafluoro-2-hydroxy-2-methylheptan-3-yl)imidazo[1,2-a]pyridine-3-carboxamide (enantiomer A)] | 0.53 | AUCnorm [2]: 2.9 kg·h/L; CLblood [2]: 7.33 mL/min/kg; MRT [2]: 8.4 h; half-life [2]: 6.2 h
3 | CCCC[C@@H](NC(=O)c1c(C)nc2c(OCc3c(F)cccc3F)cccn12)C(O)C(F)(F)F (stereo partly drawn) [Example 141, 8-[(2,6-Difluorobenzyl)oxy]-2-methyl-N-[(3R)-1,1,1-trifluoro-2-hydroxyheptan-3-yl]imidazo[1,2-a]pyridine-3-carboxamide] | 0.1 | –
4 | CCCC[C@H](CO)NC(=O)c1c(C)nc2c(OCc3c(F)cccc3F)cc(C#N)cn12 [Example 157, 6-Cyano-8-[(2,6-difluorobenzyl)oxy]-N-[(2R)-1-hydroxyhexan-2-yl]-2-methylimidazo[1,2-a]-pyridine-3-carboxamide] | 0.065 | –
5 | CCCC[C@H](CO)NC(=O)c1c(C)nc2c(OCCC(C)C)cccn12 [Example 159, N-[(2R)-1-Hydroxyhexan-2-yl]-2-methyl-8-(3-methylbutoxy)imidazo[1,2-a]pyridine-3-carboxamide] | 1.0 | –
6 | CCCC[C@H](CO)NC(=O)c1c(C)nc2c(OCCC(C)C)cc(C)cn12 [Example 166, N-[(2R)-1-Hydroxyhexan-2-yl]-2,6-dimethyl-8-(3-methylbutoxy)imidazo[1,2-a]pyridine-3-carboxamide] | 1.0 | –
7 | CCCC[C@H](CO)NC(=O)c1c(C)nc2c(OCCC(C(F)(F)F)C(F)(F)F)cc(C)cn12 [Example 169, N-[(2R)-1-Hydroxyhexan-2-yl]-2,6-dimethyl-8-[4,4,4-trifluoro-3-(trifluoromethyl)butoxy]imidazo-[1,2-a]pyridine-3-carboxamide] | 0.3 | –
8 | Cc1cc(OCCC(C(F)(F)F)C(F)(F)F)c2nc(C)c(C(=O)NC3c4ccccc4CC3O)n2c1 (stereo not shown) [Example 172, N-(2-Hydroxy-2,3-dihydro-1H-inden-1-yl)-2,6-dimethyl-8-[4,4,4-trifluoro-3-(trifluoromethyl)-butoxy]imidazo[1,2-a]pyridine-3-carboxamide] | 1.0 | –
9 | Cc1cc(OCCC(C(F)(F)F)C(F)(F)F)c2nc(C)c(C(=O)NC3CCCC3O)n2c1 (stereo not shown) [Example 173, N-(2-hydroxycyclopentyl)-2,6-dimethyl-8-[4,4,4-trifluoro-3-(trifluoromethyl)butoxy]imidazo[1,2-a]pyridine-3-carboxamide] | 3.0 | –
10 | CCCC[C@H](CO)NC(=O)c1c(C)nc2c(OCc3c(F)cccc3F)c(F)ccn12 [Example 177, 8-[(2,6-Difluorobenzyl)oxy]-7-fluoro-N-[(2R)-1-hydroxyhexan-2-yl]-2-methylimidazo[1,2-a]-pyridine-3-carboxamide] | 1.0 | –

Now from value to compound, other results behind:

Row | MEC (minimal effective concentration) [1] [µM] | Structure (SMILES) | other results
11 | 0.03 | CCCC[C@@H](NC(=O)c1c(C)nc2c(OCc3c(F)cccc3F)cccn12)C(C)O (stereo partly drawn) [Example 139, 8-[(2,6-Difluorobenzyl)oxy]-N-[(3R)-2-hydroxyheptan-3-yl]-2-methylimidazo[1,2-a]pyridine-3-carboxamide] | –
12 | 0.03 | CCCC[C@@H](NC(=O)c1c(C)nc2c(OCc3c(F)cccc3F)cccn12)C(C)O (stereo partly drawn) [Example 140, 8-[(2,6-Difluorobenzyl)oxy]-N-[(3R)-2-hydroxyheptan-3-yl]-2-methylimidazo[1,2-a]pyridine-3-carboxamide] | –
13 | 0.1 | CCCC[C@@H](NC(=O)c1c(C)nc2c(OCc3c(F)cccc3F)cccn12)C(O)C(F)(F)F (stereo partly drawn) [Example 142, 8-[(2,6-Difluorobenzyl)oxy]-2-methyl-N-[(3R)-1,1,1-trifluoro-2-hydroxyheptan-3-yl]imidazo[1,2-a]pyridine-3-carboxamide] | –
14 | 0.1 | CCCC[C@@H](NC(=O)c1c(C)nc2c(OCc3c(F)cccc3F)cccn12)C(C)(C)O [Example 147, 8-[(2,6-Difluorobenzyl)oxy]-N-[(3R)-2-hydroxy-2-methylheptan-3-yl]-2-methylimidazo[1,2-a]-pyridine-3-carboxamide] | –
15 | 0.3 | Cc1nc2c(OCc3c(F)cccc3F)cccn2c1C(=O)NCCC(C)(C)O [Example 153, 8-[(2,6-difluorobenzyl)oxy]-N-(3-hydroxy-3-methylbutyl)-2-methylimidazo[1,2-a]pyridine-3-carboxamide] | –
16 | 0.2 | COC(=O)[C@H](CO)NC(=O)c1c(C)nc2c(OCc3c(F)cccc3F)cccn12 [Example 164, Methyl N-({8-[(2,6-difluorobenzyl)oxy]-2-methylimidazo[1,2-a]pyridin-3-yl}carbonyl)-L-serinate] | –
17 | 1.0 | Cc1nc2c(OCc3c(F)cccc3F)cccn2c1C(=O)N[C@@H](CO)C(C)(C)O [Example 165, 8-[(2,6-Difluorobenzyl)oxy]-N-[(2S)-3-dihydroxy-3-methylbutan-2-yl]-2-methylimidazo[1,2-a]-pyridine-3-carboxamide] | –
